Reference: the NIST ThermoML archive (doi:10.1016/j.fluid.2009.08.017)
Numbers after ± are expanded uncertainties.

Assay: activity coefficient (dimensionless); of the first substance listed, at infinite dilution; xn = mol fraction of the nth substance listed
Conditions: 101 kPa, Liquid, Chromatography, x1 = 0

**Q.** For `C=CCCCCC` [1-heptene] + CCCCCCOCn1cc[n+](C)c1.O=S(=O)([N-]S(=O)(=O)C(F)(F)F)C(F)(F)F, which activity coefficient (298.15 K) is on record?
**A.** 6.16 ± 0.42

**Q.** And the activity coefficient (308.15 K)?
**A.** 5.96 ± 0.41

**Q.** And the activity coefficient (318.15 K)?
**A.** 5.79 ± 0.39

**Q.** What about the activity coefficient (328.15 K) of the same compound?
**A.** 5.61 ± 0.38

**Q.** And the activity coefficient (338.15 K)?
**A.** 5.44 ± 0.37

**Q.** And the activity coefficient (348.15 K)?
**A.** 5.3 ± 0.36

**Q.** What about the activity coefficient (358.15 K) of the same compound?
**A.** 5.18 ± 0.35

**Q.** And the activity coefficient (368.15 K)?
**A.** 5.05 ± 0.34

**Q.** What does the source list for `CCCOCCC` [dipropyl ether] + CCCCCCOCn1cc[n+](C)c1.O=S(=O)([N-]S(=O)(=O)C(F)(F)F)C(F)(F)F?
**A.** activity coefficient (298.15 K): 2.92 ± 0.2; activity coefficient (308.15 K): 2.89 ± 0.2; activity coefficient (318.15 K): 2.87 ± 0.2; activity coefficient (328.15 K): 2.85 ± 0.19; activity coefficient (338.15 K): 2.83 ± 0.19; activity coefficient (348.15 K): 2.81 ± 0.19; activity coefficient (358.15 K): 2.79 ± 0.19; activity coefficient (368.15 K): 2.77 ± 0.19

**Q.** Which results are given for `C1CCCCCCC1` [cyclooctane] + CCCCCCOCn1cc[n+](C)c1.O=S(=O)([N-]S(=O)(=O)C(F)(F)F)C(F)(F)F?
**A.** activity coefficient (298.15 K): 8.12 ± 0.55; activity coefficient (308.15 K): 7.57 ± 0.52; activity coefficient (318.15 K): 7.11 ± 0.48; activity coefficient (328.15 K): 6.74 ± 0.46; activity coefficient (338.15 K): 6.35 ± 0.43; activity coefficient (348.15 K): 6.06 ± 0.41; activity coefficient (358.15 K): 5.75 ± 0.39; activity coefficient (368.15 K): 5.48 ± 0.37

**Q.** With `CCCCC` [pentane] + CCCCCCOCn1cc[n+](COCCCCCC)c1.O=S(=O)([N-]S(=O)(=O)C(F)(F)F)C(F)(F)F as the compound, how does the activity coefficient (298.15 K) read?
**A.** 2.78 ± 0.19

**Q.** What about the activity coefficient (308.15 K) of the same compound?
**A.** 2.69 ± 0.18

**Q.** And the activity coefficient (318.15 K)?
**A.** 2.62 ± 0.18

**Q.** And the activity coefficient (328.15 K)?
**A.** 2.54 ± 0.17

**Q.** And the activity coefficient (338.15 K)?
**A.** 2.48 ± 0.17

**Q.** What about the activity coefficient (348.15 K) of the same compound?
**A.** 2.43 ± 0.17

**Q.** What about the activity coefficient (358.15 K) of the same compound?
**A.** 2.38 ± 0.16

**Q.** What about the activity coefficient (368.15 K) of the same compound?
**A.** 2.33 ± 0.16

**Q.** Which results are given for `CCc1ccccc1` [ethylbenzene] + CCCCCCOCn1cc[n+](COCCCCCC)c1.O=S(=O)([N-]S(=O)(=O)C(F)(F)F)C(F)(F)F?
**A.** activity coefficient (298.15 K): 0.967 ± 0.061; activity coefficient (308.15 K): 0.966 ± 0.061; activity coefficient (318.15 K): 0.965 ± 0.061; activity coefficient (328.15 K): 0.964 ± 0.061; activity coefficient (338.15 K): 0.963 ± 0.061; activity coefficient (348.15 K): 0.963 ± 0.061; activity coefficient (358.15 K): 0.962 ± 0.06

**Q.** With `COC(C)(C)C` [2-methoxy-2-methylpropane] + CCCCCCOCn1cc[n+](C)c1.O=S(=O)([N-]S(=O)(=O)C(F)(F)F)C(F)(F)F as the compound, how does the activity coefficient (298.15 K) read?
**A.** 1.26 ± 0.08

**Q.** And the activity coefficient (308.15 K)?
**A.** 1.29 ± 0.08

**Q.** And the activity coefficient (318.15 K)?
**A.** 1.32 ± 0.09

**Q.** What about the activity coefficient (328.15 K) of the same compound?
**A.** 1.36 ± 0.09

**Q.** What about the activity coefficient (338.15 K) of the same compound?
**A.** 1.39 ± 0.09

**Q.** And the activity coefficient (348.15 K)?
**A.** 1.41 ± 0.09

**Q.** What about the activity coefficient (358.15 K) of the same compound?
**A.** 1.44 ± 0.09

**Q.** And the activity coefficient (368.15 K)?
**A.** 1.46 ± 0.1

**Q.** With `C#CCCCCC` [1-heptyne] + CCCCCCOCn1cc[n+](C)c1.O=S(=O)([N-]S(=O)(=O)C(F)(F)F)C(F)(F)F as the compound, how does the activity coefficient (298.15 K) read?
**A.** 2.44 ± 0.17

**Q.** What about the activity coefficient (308.15 K) of the same compound?
**A.** 2.45 ± 0.17

**Q.** And the activity coefficient (318.15 K)?
**A.** 2.45 ± 0.17

**Q.** And the activity coefficient (328.15 K)?
**A.** 2.46 ± 0.17

**Q.** And the activity coefficient (338.15 K)?
**A.** 2.47 ± 0.17

**Q.** What about the activity coefficient (348.15 K) of the same compound?
**A.** 2.48 ± 0.17

**Q.** What about the activity coefficient (358.15 K) of the same compound?
**A.** 2.48 ± 0.17

**Q.** And the activity coefficient (368.15 K)?
**A.** 2.49 ± 0.17

**Q.** What does the source list for `Cc1ccc(C)cc1` [1,4-dimethylbenzene] + CCCCCCOCn1cc[n+](COCCCCCC)c1.O=S(=O)([N-]S(=O)(=O)C(F)(F)F)C(F)(F)F?
**A.** activity coefficient (318.15 K): 0.949 ± 0.06; activity coefficient (328.15 K): 0.952 ± 0.06; activity coefficient (338.15 K): 0.955 ± 0.06; activity coefficient (348.15 K): 0.958 ± 0.06; activity coefficient (358.15 K): 0.96 ± 0.06; activity coefficient (368.15 K): 0.962 ± 0.06

**Q.** Which results are given for `C#CCCCC` [1-hexyne] + CCCCCCOCn1cc[n+](C)c1.O=S(=O)([N-]S(=O)(=O)C(F)(F)F)C(F)(F)F?
**A.** activity coefficient (298.15 K): 1.93 ± 0.13; activity coefficient (308.15 K): 1.94 ± 0.13; activity coefficient (318.15 K): 1.95 ± 0.13; activity coefficient (328.15 K): 1.96 ± 0.13; activity coefficient (338.15 K): 1.97 ± 0.13; activity coefficient (348.15 K): 1.98 ± 0.13; activity coefficient (358.15 K): 1.98 ± 0.13; activity coefficient (368.15 K): 1.99 ± 0.14

**Q.** Which results are given for `O` [water] + CCCCCCOCn1cc[n+](COCCCCCC)c1.O=S(=O)([N-]S(=O)(=O)C(F)(F)F)C(F)(F)F?
**A.** activity coefficient (298.15 K): 4.43 ± 0.3; activity coefficient (308.15 K): 3.8 ± 0.26; activity coefficient (318.15 K): 3.31 ± 0.23; activity coefficient (328.15 K): 2.93 ± 0.2; activity coefficient (338.15 K): 2.53 ± 0.17; activity coefficient (348.15 K): 2.24 ± 0.15; activity coefficient (358.15 K): 2.02 ± 0.14; activity coefficient (368.15 K): 1.83 ± 0.12

**Q.** With `CCOCC` [diethyl ether] + CCCCCCOCn1cc[n+](C)c1.O=S(=O)([N-]S(=O)(=O)C(F)(F)F)C(F)(F)F as the compound, how does the activity coefficient (298.15 K) read?
**A.** 1.35 ± 0.09

**Q.** And the activity coefficient (308.15 K)?
**A.** 1.37 ± 0.09

**Q.** And the activity coefficient (318.15 K)?
**A.** 1.38 ± 0.09

**Q.** And the activity coefficient (328.15 K)?
**A.** 1.4 ± 0.09

**Q.** What about the activity coefficient (338.15 K) of the same compound?
**A.** 1.41 ± 0.09

**Q.** What about the activity coefficient (348.15 K) of the same compound?
**A.** 1.43 ± 0.09

**Q.** What about the activity coefficient (358.15 K) of the same compound?
**A.** 1.44 ± 0.09

**Q.** And the activity coefficient (368.15 K)?
**A.** 1.45 ± 0.1

**Q.** Which activity coefficient (318.15 K) does the source give for `Cc1cccc(C)c1` [1,3-dimethylbenzene] + CCCCCCOCn1cc[n+](C)c1.O=S(=O)([N-]S(=O)(=O)C(F)(F)F)C(F)(F)F here?
**A.** 1.45 ± 0.095

**Q.** And the activity coefficient (328.15 K)?
**A.** 1.46 ± 0.096

**Q.** What about the activity coefficient (338.15 K) of the same compound?
**A.** 1.47 ± 0.096

**Q.** What about the activity coefficient (348.15 K) of the same compound?
**A.** 1.48 ± 0.097

**Q.** What about the activity coefficient (358.15 K) of the same compound?
**A.** 1.48 ± 0.098

**Q.** What about the activity coefficient (368.15 K) of the same compound?
**A.** 1.49 ± 0.098

**Q.** For `CCCO` [propan-1-ol] + CCCCCCOCn1cc[n+](C)c1.O=S(=O)([N-]S(=O)(=O)C(F)(F)F)C(F)(F)F, which activity coefficient (298.15 K) is on record?
**A.** 1.83 ± 0.12

**Q.** What about the activity coefficient (308.15 K) of the same compound?
**A.** 1.64 ± 0.11

**Q.** And the activity coefficient (318.15 K)?
**A.** 1.49 ± 0.1

**Q.** And the activity coefficient (328.15 K)?
**A.** 1.36 ± 0.09

**Q.** And the activity coefficient (338.15 K)?
**A.** 1.24 ± 0.08

**Q.** And the activity coefficient (348.15 K)?
**A.** 1.15 ± 0.07

**Q.** And the activity coefficient (358.15 K)?
**A.** 1.07 ± 0.07

**Q.** What about the activity coefficient (368.15 K) of the same compound?
**A.** 0.989 ± 0.062
